# Data as given in article PMC11374673, “Discovery of isoquinoline sulfonamides as allosteric gyrase inhibitors with activity against fluoroquinolone-resistant bacteria” (Nature Chemistry, 2024).
# Where “and” joins values, the source holds several entries; their conditions need not be identical. Identical values can stand only once.
# Key:
# [1] = system: E. coli W3110 gyrA S97L, S83L, D87N; test: MIC against CRISPR/Cas9 gyrA point mutants; type: cell-based, Escherichia coli; conditions: for susceptibility of gyrA S97L mutant: CRISPR–Cas9 S97L; for MIC: Escherichia coli
# Description: (§1) MIC was determined by broth microdilution. Single-colony cultures were grown to exponential phase (OD600 of 0.5) aerobically at 37 °C. In case of strains from the Keio collection, 50 µg ml^−1 kanamycin was supplemented to the media to ascertain a homogeneous population. The bacterial suspensions were diluted 100-fold in CAMHB and 50 µl was added to a twofold serial dilution series of test compounds (50 µl per well) in polypropylene 96-well microtitre plates to reach a volume of 100 µl. The plates were sealed with breathable membranes and incubated overnight at 37 °C with constant shaking (600 r.p.m.). The MIC was determined as the lowest concentration at which no visible bacterial growth was observed as compared with the inoculum controls from the median of a minimum of triplicates.
# Mutants of the DNA gyrase subunit A encoding gene (gyrA) were constructed following the protocol for gene editing via the CRISPR–Cas9 system. Strains and plasmids used are listed in Supplementary Table 15, and primers used can be found in Supplementary Table 16. The following mutations were created: S97L in E. coli W3110. Two common mutations in the gyrA gene that give resistance to fluoroquinolone antibiotics were created in E. coli W3110, namely S83L and D87N. To create the gyrA (S97L) mutants, the construct psgRNA-gyrA-M5 was assembled as follows: The 20-nt spacer sequence was introduced by PCR on pTargetF using primers gyrA_P11 and gyrA_P12, the homology-directed repair (HDR) arms were amplified from E. coli W3110 genomic DNA by PCR using primer pairs gyrA_P05 and gyrA_P013, and gyrA_P08 and gyrA_P14. The three PCR fragments generated were cloned into the SpeI and BglII digested pTargetF via Gibson assembly. To avoid off-target effects of CRISPR, besides desired point mutation for gyrA (S97L), four other silent point mutations were also included in the HDR template. Consequently, the amino acid sequence of gyrA will remain the same in the generated mutant except for the desired mutation. Similarly, constructs psgRNA-gyrA-S83L and psgRNA-gyrA-D87N were created to introduce mutations S83L and D87N in gyrA, respectively. In psgRNA-gyrA-S83L, spacer sequence was introduced using primers gyrA_P12 and gyrA_P17, HDR template was amplified using primer pairs gyrA_P05 and gyrA_P18, and gyrA_P08 and gyrA_P19. In psgRNA-gyrA-D87N, spacer sequence was introduced using primers gyrA_P12 and gyrA_P20, HDR template was amplified using primer pairs gyrA_P05 and gyrA_P21, and gyrA_P08 and gyrA_P22. The verified constructs for gyrA engineering were transformed into E. coli W3110 carrying pCas9, and plated in LB containing kanamycin (50 µg ml^−1) for the selection of the pCas9 plasmid and spectinomycin (100 µg ml^−1) for the selection of psgRNA-gyrA-X. The plates were incubated at 30 °C. Plasmids were cured by growing the strains with 0.5 mM isopropylthiogalactoside with no antibiotics to lose first the psgRNA-gyrA plasmids. After losing the spectinomycin resistance, the strain was grown in LB with no antibiotics at 42 °C to lose the pCas plasmid. Colony PCR was performed on plasmid-free colonies using primers gyrA_P9 and gyrA_P10, and PCR products were sequenced to confirm the desired mutation
# HEK293T = test: Cytotoxicity assay (MTT); type: cell-based, human; conditions: for cytotoxicity: HEK293T and HepG2; for MTT data (raw readout): HEK293T; for IC50: 24 h, MTT
# Method in brief: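 HEK293T cells, maintained at 37 °C and 7% CO2 in Dulbecco’s modified Eagle medium with GlutaMax, antibiotics and serum, were plated in clear 96-well plates in 100 µl medium containing 1% fetal bovine serum and left 24 h to attach. After 24 h compound exposure, MTT (0.40 mg ml^−1) was added for 2 h. Formazan was dissolved in 100 µl DMSO and absorbance measured at 570 nm. Background-corrected IC50 values came from variable-slope non-linear fits.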
# HepG2 = test: Cytotoxicity assay (MTT); type: cell-based, human; conditions: for IC50: MTT, 24 h
# [2] = system: 60-resistant (60-r) isolates of E. coli W3110; test: microbe, parasite or virus in culture; type: cell-based, Escherichia coli; conditions: for MIC: Escherichia coli
# Description: as §1
# The plates were incubated at 37 °C and checked for growth after 24 and 48 h. […] Nine colonies with an increased MIC were selected for further analysis and stored as glycerol stocks.
# A. baumannii ATCC BAA747 = test: MIC by broth microdilution; type: cell-based; conditions: Acinetobacter baumannii, ATCCBAA747; read-out: MIC A. baumannii ATCC BAA747
# Description: as §1
# [3] = E. coli W3110 gyrA D87N (FQ-resistant 2)
# [4] = E. coli W3110 gyrA S83L (FQ-resistant 1)
# [5] = E. coli W3110 gyrA S97L (LEI-800-resistant)
# [6] = 0.023 uM, experiment n = 1, technical triplicates
# [7] = 0.023 uM, experiment n = 2, technical triplicates
# [8] = 0.068 uM, experiment n = 1, technical triplicates
# [9] = 0.068 uM, experiment n = 2, technical triplicates
# [10] = 0.21 uM, experiment n = 1, technical triplicates
# [11] = 0.21 uM, experiment n = 2, technical triplicates
# [12] = 0.62 uM, experiment n = 1, technical triplicates
# [13] = 0.62 uM, experiment n = 2, technical triplicates
# [14] = 1.85 uM, experiment n = 1, technical triplicates
# [15] = 1.85 uM, experiment n = 2, technical triplicates
# [16] = HepG2, 0.023 uM, experiment n = 1, technical triplicates
# [17] = HepG2, 0.023 uM, experiment n = 2, technical triplicates
# [18] = HepG2, 0.068 uM, experiment n = 1, technical triplicates
# [19] = HepG2, 0.068 uM, experiment n = 2, technical triplicates
# [20] = HepG2, 0.21 uM, experiment n = 1, technical triplicates
# [21] = HepG2, 0.21 uM, experiment n = 2, technical triplicates
# [22] = HepG2, 0.62 uM, experiment n = 1, technical triplicates
# [23] = HepG2, 0.62 uM, experiment n = 2, technical triplicates
# [24] = HepG2, 1.85 uM, experiment n = 1, technical triplicates
# [25] = HepG2, 1.85 uM, experiment n = 2, technical triplicates
SMILES,susceptibility of gyrA S97L mutant [1],"MIC [1, 3]","MIC [1, 4]","MIC [1, 5]",cytotoxicity (HEK293T),MTT data (raw readout) (HEK293T; [6]),MTT data (raw readout) (HEK293T; [7]),MTT data (raw readout) (HEK293T; [8]),MTT data (raw readout) (HEK293T; [9]),MTT data (raw readout) (HEK293T; [10]),MTT data (raw readout) (HEK293T; [11]),MTT data (raw readout) (HEK293T; [12]),MTT data (raw readout) (HEK293T; [13]),MTT data (raw readout) (HEK293T; [14]),MTT data (raw readout) (HEK293T; [15]),"IC50 (HEK293T; Homo sapiens, HEK-293T)",MTT data (raw readout) (HepG2; [16]),MTT data (raw readout) (HepG2; [17]),MTT data (raw readout) (HepG2; [18]),MTT data (raw readout) (HepG2; [19]),other results
O=S(=O)(NCCNCc1ccc(-c2ccc(F)nc2)cc1)c1cccc2cnccc12 [Compound 60],resistant,50 µM,25 µM,> 50 µM,lowest cytotoxicity,0.733 and 0.692,0.767 and 0.777 and 0.816,0.746 and 0.796 and 0.737,0.800 and 0.790 and 0.829,0.734 and 0.766 and 0.710,0.783 and 0.732 and 0.731,0.735 and 0.740 and 0.733,0.809 and 0.824 and 0.770,0.725 and 0.718 and 0.739,0.764 and 0.783 and 0.787,51 µM,0.514 and 0.522 and 0.506,0.553 and 0.550 and 0.561,0.526 and 0.514 and 0.522,0.571 and 0.568 and 0.585,"IC50 (HEK293T): > 50 µM; MTT data (raw readout) (HepG2; [20]): 0.544 and 0.520 and 0.508; MTT data (raw readout) (HepG2; [21]): 0.610 and 0.553 and 0.611; MTT data (raw readout) (HepG2; [22]): 0.525 and 0.501 and 0.502; MTT data (raw readout) (HepG2; [23]): 0.621 and 0.610 and 0.573; MTT data (raw readout) (HepG2; [24]): 0.546 and 0.544 and 0.528; MTT data (raw readout) (HepG2; [25]): 0.581 and 0.605; IC50 (HepG2; Homo sapiens, HepG2, 24 h): > 100 µM; IC50 (HepG2): > 50 µM; MIC ([2]; E. coli W3110 60-r1): > 100 µM; MIC ([2]; E. coli W3110 60-r3): 100 µM; MIC ([2]; E. coli W3110 60-r6): > 100 µM; increase in MIC in resistant colonies ([2]; all nine colonies): at least an eightfold increase in MIC; MIC (A. baumannii ATCC BAA747): > 50 µM"
O=S(=O)(NC[C@@H]1CC[C@H](c2ccc(-c3ccc(F)cc3)cc2)N1)c1cccc2cnccc12 [Compound 101],resistant,3.1 µM,3.1 µM,> 50 µM,substantial cytotoxicity,1.467 and 1.369 and 1.336,0.913 and 0.978 and 0.995,1.354 and 1.258 and 1.005,1.026 and 1.021 and 0.846,1.223 and 1.254 and 1.173,1.069 and 0.984 and 0.926,1.112 and 0.937 and 0.942,0.770 and 0.738 and 0.688,0.725 and 0.641 and 0.684,0.521 and 0.485 and 0.507,3.2 µM,0.470 and 0.394 and 0.364,0.305 and 0.260 and 0.288,0.452 and 0.420 and 0.368,0.322 and 0.313 and 0.323,"MTT data (raw readout) (HEK293T; 5.6 uM, experiment n = 1, technical triplicates): 0.749 and 0.695 and 0.667; MTT data (raw readout) (HEK293T; 5.6 uM, experiment n = 2, technical triplicates): 0.483 and 0.462 and 0.474; MTT data (raw readout) (HEK293T; 16.7 uM, experiment n = 1, technical triplicates): 0.450 and 0.504 and 0.484; MTT data (raw readout) (HEK293T; 16.7 uM, experiment n = 2, technical triplicates): 0.372 and 0.345; MTT data (raw readout) (HEK293T; 50 uM, experiment n = 2, technical triplicates): 0.011 and 0.012; MTT data (raw readout) (HepG2; [20]): 0.390 and 0.419 and 0.407; MTT data (raw readout) (HepG2; [21]): 0.324 and 0.279 and 0.267; MTT data (raw readout) (HepG2; [22]): 0.368 and 0.340 and 0.370; MTT data (raw readout) (HepG2; [23]): 0.315 and 0.269 and 0.267; MTT data (raw readout) (HepG2; [24]): 0.439 and 0.392 and 0.378; MTT data (raw readout) (HepG2; [25]): 0.289 and 0.297 and 0.299; MTT data (raw readout) (HepG2; HepG2, 5.6 uM, experiment n = 1, technical triplicates): 0.403 and 0.384 and 0.371; MTT data (raw readout) (HepG2; HepG2, 5.6 uM, experiment n = 2, technical triplicates): 0.315 and 0.277 and 0.266; MTT data (raw readout) (HepG2; HepG2, 16.7 uM, experiment n = 1, technical triplicates): 0.208 and 0.211 and 0.189; MTT data (raw readout) (HepG2; HepG2, 16.7 uM, experiment n = 2, technical triplicates): 0.140 and 0.112 and 0.095; IC50 (HepG2; Homo sapiens, HepG2, 24 h): 13 µM; MIC ([2]; E. coli W3110 60-r1): > 50 µM; MIC ([2]; E. coli W3110 60-r3): 6.25 µM; MIC ([2]; E. coli W3110 60-r6): 3.1 µM; MIC (A. baumannii ATCC BAA747): 25 µM"
